Converted amounts (≈) assume the structure as drawn.
Tests used:
Type in all cases: cell-based
E. coli ΔTolC = test: microbe, parasite or virus in culture; conditions: Escherichia coli, E. coli HAV#038; ΔTolC
Outline: (§1)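 Inoculum for broth microdilution was 5×10^5 CFU/mL final, prepared from overnight 35° C blood-agar subcultures (separate handling for streptococcal and anaerobic strains); MICs read by CLSI broth microdilution or agar dilution.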

E. coli armA = test: microbe, parasite or virus in culture; conditions: Escherichia coli, E. coli HAV#056; Clinical, armA
Outline: as §1

[1] = tested on: broad panel of different clinical isolates; test: microbe, parasite or virus in culture
Outline: as §1

[2] = tested on: S. aureus ATCC BAA-1707 (MRSA); test: MIC (broth microdilution or agar dilution, CLSI); conditions: Staphylococcus aureus; S. aureus HAV#016, ATCC BAA-1707; MRSA; read-out: MIC
Outline: as §1

S. pneumoniae ATCC 49619 = test: MIC (broth microdilution or agar dilution, CLSI); conditions: Streptococcus pneumoniae, ATCC49619, S. pneumoniae HAV#003, ATCC 49619; read-out: MIC
Outline: as §1

E. coli ATCC 25922 = test: MIC (broth microdilution or agar dilution, CLSI); conditions: Escherichia coli, ATCC25922; E. coli HAV#006, ATCC 25922; read-out: MIC
Outline: as §1

S. pneumoniae ATCC 6303 = test: MIC (broth microdilution or agar dilution, CLSI); conditions: Streptococcus pneumoniae, ATCC6303; S. pneumoniae HAV#351, ATCC 6303; read-out: MIC
Outline: as §1

S. pyogenes ATCC 19615 = test: MIC (broth microdilution or agar dilution, CLSI); conditions: Streptococcus pyogenes, ATCC19615, S. pyogenes HAV#004, ATCC 19615; read-out: MIC
Outline: as §1

S. aureus ATCC 29213 = test: MIC (broth microdilution or agar dilution, CLSI); conditions: Staphylococcus aureus, ATCC29213, S. aureus HAV#001, ATCC 29213, MP-549; read-out: MIC
Outline: as §1

S. aureus ATCC 700699 = test: MIC (broth microdilution or agar dilution, CLSI); conditions: Staphylococcus aureus, ATCC 700699 / VISA
Outline: as §1

[3] = tested on: S. pyogenes MMX 946; cErmB; test: MIC (broth microdilution or agar dilution, CLSI); conditions: Streptococcus pyogenes; S. pyogenes HAV#035, MMX 946; cErmB, mac-resistant; read-out: MIC
Outline: as §1

K. oxytoca Clinical = test: MIC (broth microdilution or agar dilution, CLSI); conditions: Klebsiella oxytoca; K. oxytoca HAV#450; Clinical; read-out: MIC
Outline: as §1

E. coli LptD = test: MIC (broth microdilution or agar dilution, CLSI); conditions: Escherichia coli, E. coli HAV#040; LptD; read-out: MIC
Outline: as §1

`CO/N=C(\C(=O)N[C@@H]1C(=O)N2C(C(=O)O)=C(CSc3nc(=O)c(=O)[nH]n3C)CS[C@H]12)c1csc(N)n1` [Ceftriaxone] gave an MIC (E. coli ΔTolC) of no more than 0.06 µg/mL, an MIC (E. coli armA) of no more than 0.06 µg/mL and an MIC ([1]; Acinetobacter baumannii, A. baumannii HAV#651, Clinical) of 4 µg/mL (≈ 7.21 µM). For the same compound, the MIC ([1]; Acinetobacter baumannii, A. baumannii HAV#652 Clinical) was 16 µg/mL (≈ 28.9 µM), the MIC ([1]; Acinetobacter baumannii, A. baumannii HAV#653, Clinical) was 2 µg/mL (≈ 3.61 µM) and the MIC ([1]; Acinetobacter baumannii, A. baumannii HAV#654, Clinical) was 4 µg/mL (≈ 7.21 µM). For the same compound, the MIC ([1]; Acinetobacter baumannii, A. baumannii HAV#655, Clinical) was 64 µg/mL (≈ 115 µM), the MIC ([1]; Acinetobacter baumannii, A. baumannii HAV#656, Clinical) was 64 µg/mL (≈ 115 µM) and the MIC ([1]; Acinetobacter baumannii, A. baumannii HAV#657, Clinical) was 64 µg/mL (≈ 115 µM). For the same compound, the MIC ([1]; Acinetobacter baumannii, A. baumannii HAV#658, Clinical) was 16 µg/mL (≈ 28.9 µM), the MIC ([1]; Acinetobacter baumannii, A. baumannii HAV#659, Clinical) was 32 µg/mL (≈ 57.7 µM) and the MIC ([1]; Acinetobacter baumannii, A. baumannii HAV#660, Clinical) was 32 µg/mL (≈ 57.7 µM). The MIC ([1]; Acinetobacter baumannii, A. baumannii HAV#661, Clinical) was 2 µg/mL (≈ 3.61 µM), the MIC ([1]; Acinetobacter baumannii, A. baumannii HAV#662, Clinical) was 32 µg/mL (≈ 57.7 µM) and the MIC ([1]; Acinetobacter baumannii, A. baumannii HAV#663, Clinical) was 16 µg/mL (≈ 28.9 µM). For the same compound, the MIC ([1]; Acinetobacter baumannii, A. baumannii HAV#664, Carbapenem R) was 64 µg/mL (≈ 115 µM), the MIC ([1]; Enterococcus faecalis, E. faecalis HAV#607, Clinical) was greater than 256 µg/mL and the MIC ([1]; Enterococcus faecalis, E. faecalis HAV#608, Clinical) was greater than 256 µg/mL. For the same compound, the MIC ([1]; Enterococcus faecalis, E. faecalis HAV#609, Clinical) was greater than 256 µg/mL, the MIC ([1]; Enterococcus faecalis, E. faecalis HAV#610, Clinical) was greater than 256 µg/mL and the MIC ([1]; Enterococcus faecalis, S. faecalis 5060, Line R & Vanco R) was greater than 256 µg/mL. It also gave an MIC ([1]; Enterococcus faecalis, S. faecalis 5074, Line R) of 256 µg/mL (≈ 462 µM), an MIC ([1]; Enterococcus faecalis, VRE, E. faecalis HAV#606, Clinical) greater than 256 µg/mL and an MIC ([1]; Enterococcus faecium, E. faecium HAV#327, Clinical) of 0.5 µg/mL (≈ 0.902 µM). The MIC ([1]; Enterococcus faecium, E. faecium HAV#328, Clinical) was greater than 128 µg/mL, the MIC ([1]; Enterococcus faecium, E. faecium HAV#329, Clinical) was greater than 256 µg/mL and the MIC ([1]; Escherichia coli, E. coli HAV#503, Clinical) was greater than 128 µg/mL. For the same compound, the MIC ([1]; Escherichia coli, E. coli HAV#511, Clinical) was 16 µg/mL (≈ 28.9 µM), the MIC ([1]; Escherichia coli, E. coli HAV#512, Clinical) was less than 0.06 µg/mL and the MIC ([1]; Escherichia coli, E. coli HAV#513, Clinical) was 0.125 µg/mL (≈ 0.225 µM). It also gave an MIC ([1]; Escherichia coli, E. coli HAV#514, Clinical) of 0.125 µg/mL (≈ 0.225 µM), an MIC ([1]; Escherichia coli, E. coli HAV#516, ESBL-producing) of 64 µg/mL (≈ 115 µM) and an MIC ([1]; Klebsiella pneumoniae, K. pneumoniae HAV#404, Clinical) of 64 µg/mL (≈ 115 µM). It also gave an MIC ([1]; Klebsiella pneumoniae, K. pneumoniae HAV#405, Clinical) of 64 µg/mL (≈ 115 µM), an MIC ([1]; Klebsiella pneumoniae, K. pneumoniae HAV#406, Clinical) of less than 0.06 µg/mL and an MIC ([1]; Klebsiella pneumoniae, K. pneumoniae HAV#407, Clinical) of 1 µg/mL (≈ 1.8 µM). The MIC ([1]; Klebsiella pneumoniae, K. pneumoniae HAV#408, Clinical) was 2 µg/mL (≈ 3.61 µM), the MIC ([1]; Klebsiella pneumoniae, K. pneumoniae HAV#409, ESBL-producing) was 128 µg/mL (≈ 231 µM) and the MIC ([1]; Neisseria gonorrhoeae, N. gonorrhoeae HAV#701, Clinical) was 0.125 µg/mL (≈ 0.225 µM). It also gave an MIC ([1]; Neisseria gonorrhoeae, N. gonorrhoeae HAV#702, Clinical) of 0.25 µg/mL (≈ 0.451 µM), an MIC ([1]; Staphylococcus aureus, MRSA, S. aureus HAV#017, MRSA Col(Colindale, England)) greater than 128 µg/mL and an MIC ([1]; Staphylococcus aureus, MRSA, S. aureus HAV#218, Line R) of 32 µg/mL (≈ 57.7 µM). The MIC ([1]; Staphylococcus aureus, MRSA, S. aureus HAV#220, Line R) was greater than 128 µg/mL, the MIC ([1]; Staphylococcus aureus, MSSA, S. aureus HAV#219, Line R) was 2 µg/mL (≈ 3.61 µM) and the MIC ([1]; Staphylococcus aureus, S. aureus HAV#052, mecA, norA, fosB, blaZ) was 64 µg/mL (≈ 115 µM). For the same compound, the MIC ([1]; Staphylococcus aureus, S. aureus HAV#053 mecA, norA, fosB) was 128 µg/mL (≈ 231 µM), the MIC ([1]; Staphylococcus aureus, S. aureus HAV#054, mecA, norA, spcl, aad1, fosB, ermA, aac6′-aph2″, blaZ) was greater than 256 µg/mL and the MIC ([1]; Staphylococcus aureus, S. aureus HAV#211, Clinical) was greater than 64 µg/mL. It also gave an MIC ([1]; Staphylococcus aureus, S. aureus HAV#212, Clinical) of 32 µg/mL (≈ 57.7 µM), an MIC ([1]; Staphylococcus aureus, S. aureus HAV#213, Clinical) of 1 µg/mL (≈ 1.8 µM) and an MIC ([1]; Staphylococcus aureus, S. aureus HAV#214, Clinical) of 4 µg/mL (≈ 7.21 µM). It also gave an MIC ([1]; Staphylococcus aureus, S. aureus HAV#215, Clinical) of 1 µg/mL (≈ 1.8 µM), an MIC ([1]; Staphylococcus aureus, S. aureus HAV#216, Clinical, cfr) of 128 µg/mL (≈ 231 µM) and an MIC ([1]; Staphylococcus aureus, S. aureus HAV#217, cfr) of 64 µg/mL (≈ 115 µM). It also gave an MIC ([1]; Staphylococcus epidermidis, S. epidermidis HAV# 275 Clinical, cfr) greater than 128 µg/mL, an MIC ([1]; Staphylococcus epidermidis, S. epidermidis HAV# 276, cfr) greater than 128 µg/mL and an MIC ([1]; Staphylococcus epidermidis, S. epidermidis HAV#277, Line R) greater than 128 µg/mL. The MIC ([1]; Staphylococcus epidermidis, S. epidermidis HAV#278 Line R) was greater than 128 µg/mL, the MIC ([1]; Staphylococcus epidermidis, S. epidermidis HAV#279, Line R) was 4 µg/mL (≈ 7.21 µM) and the MIC ([1]; Staphylococcus haemolyticus, S. haemolyticus 5052, Line R & Methicillin R) was greater than 256 µg/mL. The MIC ([1]; Streptococcus pneumoniae, ATCC700673, S. pneumoniae HAV#352, ATCC 700673, MDR) was 1 µg/mL (≈ 1.8 µM), the MIC ([1]; Streptococcus pneumoniae, ATCCBAA255, S. pneumoniae HAV#354, ATCC-BAA-255) was 1 µg/mL (≈ 1.8 µM) and the MIC ([1]; Streptococcus pneumoniae, ATCCBAA334, S. pneumoniae HAV#353, ATCC-BAA-334) was 1 µg/mL (≈ 1.8 µM). The MIC ([1]; Streptococcus pneumoniae, S. pneumoniae HAV#356, Clinical) was 1 µg/mL (≈ 1.8 µM), the MIC ([1]; Streptococcus pneumoniae, S. pneumoniae HAV#358, Clinical) was 1 µg/mL (≈ 1.8 µM) and the MIC [2] was 64 µg/mL (≈ 115 µM). The MIC (S. pneumoniae ATCC 49619) was 0.06 µg/mL (≈ 0.108 µM), the MIC (E. coli ATCC 25922) was 0.125 µg/mL (≈ 0.225 µM) and the MIC (S. pneumoniae ATCC 6303) was 0.06 µg/mL (≈ 0.108 µM). The MIC (S. pyogenes ATCC 19615) was 0.06 µg/mL (≈ 0.108 µM), the MIC (S. aureus ATCC 29213) was 2 µg/mL (≈ 3.61 µM) and the MIC (S. aureus ATCC 700699) was greater than 128 µg/mL. For the same compound, the MIC [3] was no more than 0.03 µg/mL, the MIC (K. oxytoca Clinical) was 64 µg/mL (≈ 115 µM) and the MIC (E. coli LptD) was no more than 0.06 µg/mL.
